# Source: patent US8778929B2, “Substituted heteroaryl inhibitors of B-RAF” (Boehringer Ingelheim International GmbH, priority 2008, dated 2014)
# Target: B-Raf (V600E)-kinase (Homo sapiens, UniProt P15056, V600E)
# Experiment: Kinase test B-Raf (V600E)
# Format: biochemical
# Conditions: compound concentration 2 μM; 100% = no inhibition, 0% = total inhibition; read-out: % CTL (residual activity of the enzyme relative to DMSO control)
# Summary of the method: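 Kinase preincubated with compound (typically 2 μM to 0.119 nM or 0.017 nM, 5% DMSO) 1 h at RT, then reacted 60 min at RT with 250 μM ATP and biotinylated MEK1. Phospho-MEK (Ser217/221) captured on streptavidin, detected by europium time-resolved fluorescence; IC50 from dose-response curves.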
# B-Raf (V600E)-kinase, sequence (P15056 whole entry V600E): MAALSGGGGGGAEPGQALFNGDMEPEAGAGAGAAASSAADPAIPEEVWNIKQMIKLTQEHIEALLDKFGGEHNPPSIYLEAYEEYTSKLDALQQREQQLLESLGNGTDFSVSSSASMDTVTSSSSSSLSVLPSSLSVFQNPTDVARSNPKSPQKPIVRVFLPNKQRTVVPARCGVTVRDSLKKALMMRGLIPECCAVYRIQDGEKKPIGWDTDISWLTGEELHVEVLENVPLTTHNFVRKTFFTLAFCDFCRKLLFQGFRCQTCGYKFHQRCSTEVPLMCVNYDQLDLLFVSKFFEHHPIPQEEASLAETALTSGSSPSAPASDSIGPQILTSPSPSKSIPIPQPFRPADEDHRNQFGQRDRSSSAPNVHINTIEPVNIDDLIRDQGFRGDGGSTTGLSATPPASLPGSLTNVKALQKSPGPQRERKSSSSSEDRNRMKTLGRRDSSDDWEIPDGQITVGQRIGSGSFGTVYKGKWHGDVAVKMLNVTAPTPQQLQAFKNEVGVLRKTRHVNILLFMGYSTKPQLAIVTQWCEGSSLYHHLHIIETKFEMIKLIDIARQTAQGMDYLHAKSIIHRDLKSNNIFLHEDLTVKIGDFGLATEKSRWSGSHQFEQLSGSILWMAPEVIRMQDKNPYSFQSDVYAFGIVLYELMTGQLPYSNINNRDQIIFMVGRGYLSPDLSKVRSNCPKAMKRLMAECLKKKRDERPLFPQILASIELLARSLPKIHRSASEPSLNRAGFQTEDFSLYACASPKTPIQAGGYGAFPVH
row,remaining activity at 2 µM,Structure (SMILES)
1,1.6%,Cc1ccc(C(F)(F)F)cc1NC(=O)c1cnc(C)c(-n2cc(-c3cnn(C)c3C)nn2)c1 [Example I-8]
2,1.6%,Cc1ncc(C(=O)Nc2cc(CN(C)C)c(Cl)c(C(F)(F)F)c2)cc1-n1cc(-c2cnn(C)c2C)nn1 [Example I-52]
3,5.5%,Cc1ncc(C(=O)Nc2cc(N(C)CCN(C)C)c(C)c(C(F)(F)F)c2)cc1-n1cc(-c2cnn(C)c2C)nn1 [Example I-71]
4,13.4%,CCN1CCN(c2cc(NC(=O)c3cnc(C)c(-n4cc(-c5cnn(C)c5C)nn4)c3)cc(C(F)(F)F)c2)CC1 [Example I-59]
5,1.9%,CCC(C)N1CC=C(c2cc(NC(=O)c3cnc(C)c(-n4cc(-c5cnn(C)c5C)nn4)c3)cc(C(F)(F)F)c2C)CC1 (centres unmarked) [Example I-99]
6,1.3%,CNCc1cc(NC(=O)c2cnc(C)c(-n3cc(-c4cnn(C)c4C)nn3)c2)cc(C(F)(F)F)c1 [Example I-110]
7,2.3%,COc1c(CNC(C)C)cc(C(F)(F)F)cc1NC(=O)c1cnc(C)c(-n2cc(-c3cnn(C)c3C)nn2)c1 [Example I-13]
8,3.8%,COc1c(CNC(C)C)cc(NC(=O)c2cnc(C)c(-n3cc(-c4cnn(C)c4C)nn3)c2)cc1C(F)(F)F [Example I-103]
9,4.6%,Cc1ncc(C(=O)Nc2cc(N3CC[C@H](N(C)C)C3)c(C)c(C(F)(F)F)c2)cc1-n1cc(-c2cnn(C)c2C)nn1 [Example I-63]
10,2.2%,COc1cncc(-c2cn(-c3cc(C(=O)Nc4cc(N5CCN(C)CC5)c(F)c(C(F)(F)F)c4)cnc3C)nn2)c1 [Example I-25]
11,4.6%,COc1c(CN(C)C)cc(C(F)(F)F)cc1NC(=O)c1cnc(C)c(-n2cc(-c3cnn(C)c3C)nn2)c1 [Example I-102]
12,2%,COc1ccc(NC(=O)c2cnc(C)c(-n3cc(-c4cncc(N5CCN(C)CC5)c4)nn3)c2)cc1C(F)(F)F [Example I-146]
13,2.2%,Cc1ncc(C(=O)Nc2cc(CNCC(C)C)c(C)c(C(F)(F)F)c2)cc1-n1cc(-c2cnn(C)c2C)nn1 [Example I-131]
14,1.9%,Cc1ncc(C(=O)Nc2cc(CO)c(Cl)c(C(F)(F)F)c2)cc1-n1cc(-c2cnn(C)c2C)nn1 [Example I-115]
15,1.8%,Cc1ncc(C(=O)Nc2cc(CNC3CC3)cc(C(F)(F)F)c2)cc1-n1cc(-c2cnn(C)c2C)nn1 [Example I-111]
16,6.6%,COc1ccc(NC(=O)c2cnc(C)c(-n3cc(-c4cncnc4)nn3)c2)cc1C(F)(F)F [Example I-64]
17,1.6%,Cc1ncc(C(=O)Nc2cc(C(C)(C)C)no2)cc1-n1cc(-c2cnn(C)c2C)nn1 [Example I-42]
18,6.4%,Cc1ncc(NC(=O)c2cccc(OC(F)(F)F)c2)cc1-n1cc(-c2cnn(C)c2C)nn1 [XII-8]
19,4.7%,Cc1ncc(NC(=O)c2cc(C(C)(C)C)on2)cc1-n1cc(-c2cnn(C)c2C)nn1 [XII-3]
20,3.3%,CCN1CC=C(c2cc(NC(=O)c3cnc(C)c(-n4cc(-c5cnn(C)c5C)nn4)c3)cc(C(F)(F)F)c2C)CC1 [Example I-97]
21,1.8%,Cc1ncc(C(=O)Nc2cc(C(F)(F)F)cc(N3CCOCC3)c2C)cc1-n1cc(-c2cnn(C)c2C)nn1 [Example I-122]
22,4.7%,COc1ccc(C(=O)Nc2cnc(C)c(-n3cc(-c4cnn(C)c4C)nn3)c2)cc1C(F)(F)F [XII-7]
23,2.8%,Cc1ncc(C(=O)Nc2cc(NCCN(C)C)cc(C(F)(F)F)c2)cc1-n1cc(-c2cnn(C)c2C)nn1 [Example I-78]
24,1.7%,Cc1ncc(C(=O)Nc2cc(C3=CCN(C)CC3)cc(C(F)(F)F)c2)cc1-n1cc(-c2cnn(C)c2C)nn1 [Example I-87]
25,2.5%,COc1cncc(-c2cn(-c3cc(C(=O)Nc4ccc(OC)c(C(F)(F)F)c4)cnc3C)nn2)c1 [Example I-92]
26,2.8%,Cc1ncc(C(=O)Nc2cc(Br)cc(C(F)(F)F)c2)cc1-n1cc(-c2cnn(C)c2C)nn1 [Example I-62]
27,1.1%,Cc1ncc(C(=O)Nc2cc(N3CCN(C)CC3)c(F)c(C(F)(F)F)c2)cc1-n1cc(-c2cnn(C)c2C)nn1 [Example I-10]
28,3.9%,Cc1ncc(NC(=O)c2cc(OC(F)(F)F)cc(N3CCOCC3)c2)cc1-n1cc(-c2cnn(C)c2C)nn1 [XII-25]

# Further lines, the compound ahead of its results:
row,Structure (SMILES),remaining activity at 2 µM
1,Cc1ncc(C(=O)Nc2cc(C(C)(C)C)on2)cc1-n1cc(-c2cncc(NC3CCOCC3)c2)nn1 [Example I-40],1.4%
2,Cc1cn2c(-c3cn(-c4cc(C(=O)Nc5cc(C(C)(C)C)nn5C)cnc4C)nn3)cnc2cn1 [Example I-30],6.9%
3,Cc1ncc(C(=O)Nc2cc(C(C)(C)C)on2)cc1-n1cc(-c2cccnc2)nn1 [Example I-80],1.9%
4,Cc1ncc(C(=O)Nc2cc(C(C)(C)C)on2)cc1-n1cc(-c2cncc(CN3CCOCC3)c2)nn1 [Example I-184],2.5%
5,Cc1ncc(NC(=O)c2cc(OC(F)(F)F)cc(N3CCN(C)CC3)c2)cc1-n1cc(-c2cncc(C#N)c2)nn1 [XII-27],2.4%
6,COc1cncc(-c2cn(-c3cc(C(=O)Nc4cc(C(F)(F)F)ccn4)cnc3C)nn2)c1 [Example I-29],2.5%
7,Cc1ncc(C(=O)Nc2cc(C(C)(C)C)on2)cc1-n1cc(-c2cncc(N3CC[C@H](N(C)C)C3)c2)nn1 [Example I-145],2.2%
8,Cc1ncc(C(=O)Nc2cc(C(C)(C)C)on2)cc1-n1cc(-c2cncs2)nn1 [Example I-82],1.6%
9,Cc1ncc(C(=O)Nc2cc(C(C)(C)C)on2)cc1-n1cc(-c2cncc(N3CCNCC3)c2)nn1 [Example I-183],1.8%
10,COCCNc1cncc(-c2cn(-c3cc(C(=O)Nc4cc(C(C)(C)C)on4)cnc3C)nn2)c1 [Example I-41],1.1%
11,COc1cncc(-c2cn(-c3cc(C(=O)Nc4cc(C(C)(C)C)n[nH]4)cnc3C)nn2)c1 [Example I-84],2.4%
12,CCN1CCN(c2cc(NC(=O)c3cnc(C)c(-n4cc(-c5cncs5)nn4)c3)cc(C(F)(F)F)c2C)CC1 [Example I-43],1.1%
13,Cc1ncc(C(=O)Nc2cc(C(C)(C)C)on2)cc1-n1cc(-c2cncc(NCCN(C)C)c2)nn1 [Example I-138],2.5%
14,Cc1ncc(NC(=O)c2cccc(OC(F)(F)F)c2)cc1-n1cc(-c2cncc(N3CCN(C)CC3)c2)nn1 [XII-36],1.3%
15,Cc1cn2c(-c3cn(-c4cc(NC(=O)c5cc(N6CCN(C)CC6)c(C)c(C(F)(F)F)c5)cnc4C)nn3)cnc2cn1 [XII-18],2.1%
16,CCCCN1CCN(c2cncc(-c3cn(-c4cc(C(=O)Nc5cc(C(C)(C)C)on5)cnc4C)nn3)c2)CC1 [Example I-172],8%
17,CCOCCN1CCN(c2cncc(-c3cn(-c4cc(C(=O)Nc5cc(C(C)(C)C)on5)cnc4C)nn3)c2)CC1 [Example I-170],7.5%
18,Cc1ncc(C(=O)Nc2cc(C(C)(C)C)on2)cc1-n1cc(-c2cncc(CN3CCN(C(C)C)CC3)c2)nn1 [Example I-190],4.1%
19,Cc1ncc(C(=O)Nc2cc(C(C)(C)C)on2)cc1-n1cc(-c2cncc(CN3CCN(C)CC3)c2)nn1 [Example I-186],1.5%
20,Cc1ncc(C(=O)Nc2cc(C(C)(C)C)on2)cc1-n1cc(-c2cncc(N3CCC(N4CCCCC4)CC3)c2)nn1 [Example I-139],2.5%
21,Cc1ncc(C(=O)Nc2cc(C(C)(C)C)on2)cc1-n1cc(-c2cncc(N3CCC(CN4CCOCC4)CC3)c2)nn1 [Example I-206],0.9%
22,Cc1ncc(C(=O)Nc2cc(C(C)(C)C)on2)cc1-n1cc(-c2cncc(N3CCC(N4CCOCC4)CC3)c2)nn1 [Example I-136],2.5%
23,Cc1ncc(C(=O)Nc2cc(C(C)(C)C)on2)cc1-n1cc(-c2cncc(N(C)C3CCN(C(C)C)CC3)c2)nn1 [Example I-200],1%
24,CCCN1CCN(c2cncc(-c3cn(-c4cc(C(=O)Nc5cc(C(C)(C)C)on5)cnc4C)nn3)c2)CC1 [Example I-164],9.9%
25,CCC(CC)N1CCN(c2cncc(-c3cn(-c4cc(C(=O)Nc5cc(C(C)(C)C)on5)cnc4C)nn3)c2)CC1 [Example I-204],1%
26,CCN1CCN(c2cncc(-c3cn(-c4cc(C(=O)Nc5cc(C(C)(C)C)on5)cnc4C)nn3)c2)CC1 [Example I-134],2.6%
27,Cc1ncc(NC(=O)c2cccc(C(C)(C)C#N)c2)cc1-n1cc(-c2cncc(N(C)CCN(C)C)c2)nn1 [XII-53],7%
28,Cc1ncc(C(=O)Nc2cc(C(C)(C)C)on2)cc1-n1cc(-c2cncnc2)nn1 [Example I-21],2.2%
29,Cc1ncc(C(=O)Nc2cc(C(C)(C)C)on2)cc1-n1cc(-c2cncc(NC3CCOC3)c2)nn1 (centres unmarked) [Example I-37],2.5%
30,Cc1ncc(C(=O)Nc2ccc(Cl)c(C(C)(C)C)c2)cc1-n1cc(-c2cncc(N3CCN(C)CC3)c2)nn1 [Example I-147],3.1%

# Same assay, conditions: measurement at 1.43 μM (***); 100% = no inhibition, 0% = total inhibition; read-out: % CTL (residual activity of the enzyme relative to DMSO control)
row,remaining activity at 1.43 µM,Structure (SMILES)
1,1.5%,Cc1ncc(NC(=O)c2cccc(C(C)(C)C#N)c2)cc1-n1cc(-c2cccnc2)nn1 [XII-11]
